{"source": "patent US20210308101A1", "about": "“METHODS OF TREATING FIBROMYALGIA” (Aptinyx Inc., priority 2019, published 2021)", "assay_type_in_all_cases": "in vivo, human", "key": {"[1]": {"system": "subjects with fibromyalgia", "assay": "QST: cuff algometry", "protocol": "Large volume, deep tissue pressure sensitivity was assessed by cuff algometry. Calibrated cuff pain stimuli were delivered to the gastrocnemius area of the lower leg using a validated MRI-compatible cuff pain device. This system included an air compressor, computerized pressure controller, and a 13.5 cm×82.5 cm Velcro-adjusted pressure cuff (similar to a blood pressure cuff). Subjects first received an ascending series of cuff pressures, starting at 20 mmHg and increasing in 20-mmHg steps (10- to 14-second duration pressures, 20-second interstimulus interval) to tolerance or a maximum of 400 mmHg. Each pressure was rated after deflation on a 0 to 100 NRS. These pain ratings were used to interpolate a series of 9 tolerable cuff pressures that were delivered in pseudo-randomized order and rated individually. […] Curves were constructed for each participant and used for analysis of drug and placebo effects. An abbreviated form of cuff algometry was performed during fMRI as an evoked pain stimulus.\n(§1) QST data were analyzed at the University of Michigan CPFRC. Dependent variables were the MAST derived outcomes (Pain50, pressure pain threshold, pain tolerance, and pain ratings at 2 kg/cm2), algometry-derived pressure pain thresholds (mean of three trials) at each anatomical site, average cuff intensity ratings (mean of ratings at all stimulus levels during the ascending or random sequences), and average visual task unpleasantness and brightness intensity ratings (mean of ratings at all stimulus levels). Practice data were not analyzed. Overall pain intensity and unpleasantness NRS scores as well as stimulus response curves for each test were assessed during post hoc analyses. Data points displaying measurement artefacts, including device malfunction or user error, were set to missing. Single subject QST variables were analyzed using paired t-tests and/or nonparametric Wilcoxon signed-rank tests in SPSS or R."}, "[2]": {"system": "subjects with fibromyalgia", "assay": "QST: MAST pressure pain sensitivity at the thumbnail", "source_text": "The multi-modal automated sensory testing (MAST) system was used to measure localized pressure sensitivity at an asymptomatic, neutral body site, the thumbnail. The MAST system is a nonsignificant-risk investigational device that applies a computer-controlled mechanical stimulation at precisely controlled intensity levels and durations. The validity in the measurement of centrally-mediated pain sensitivity has been discussed extensively. The MAST system delivered an ascending series of computer-controlled, 5-second pressures at 20-second intervals (with 20% jitter) to the subject's thumbnail bed, beginning at 0.25 to 0.5 kg/cm^2 and increasing in steps of 0.25 to 0.50 kg/cm^2. Pain intensity was rated after each pressure on a 0 to 100 NRS. Testing was terminated when the first of 3 possible stop conditions were met: 1) subject reached her personal pain tolerance and requested to stop the test, 2) subject reported a pain intensity rating of >80, or 3) the maximum pressure of 10 kg/cm^2 was delivered. A regression model was used fit the stimulus-response data obtained from this procedure and interpolate Pain50, defined as the pressure intensity that evokes a moderate level of suprathreshold pressure pain (i.e., 50/100). Additional derived variables included: 1) Pressure pain threshold, defined as the first pressure in a series of at least 2 consecutive pressures that elicited a NRS pain rating >0; 2) slope of the stimulus-response function as a measure of the rate of pain increase; and 3) pressure pain tolerance, defined as the last pressure recorded in the stimulus response profile. These variables were used to determine the effect of drug and placebo treatments on pain sensitivity.\nas §1"}, "[3]": {"system": "subjects with fibromyalgia", "assay": "QST: visual stimulation task", "source_text": "To measure non-somatic sensitivity, a series of nonpainful, yet aversive, visual stimuli were presented to each subject. This 10-minute task consisted of 2 different visual stimuli presented in an alternating block design. The control stimulus was a solid color background, whereas experimental stimulus was a flashing annulus checkerboard. These 2 stimuli were interleaved into independent 8- to 30-second blocks throughout the duration of the task. Subjects viewed the stimuli on a calibrated liquid crystal display computer screen designed for high resolution image presentation. Stimuli were presented at varying brightness levels and/or color patterns, and each stimulus presentation was rated on scales of sensory intensity and unpleasantness. […] A redacted version of this task was administered during fMRI.\nas §1"}}, "data": [{"smiles": "CC(C)C(=O)N1CCC[C@]12CN([C@H](C(N)=O)[C@@H](C)O)C2=O", "note": "[NYX-2925, (2S, 3R)-3-hydroxy-2-((R)-5-isobutyryl-1-oxo-2,5-diazaspiro[3.4]octan-2-yl)butanamide]", "values": [{"measurement": "mean pain intensity rating of the Cuff Random paradigm", "setting": "[1]; NYX-2925 20 mg relative to baseline, p=0.073", "result": "marginally reduced"}, {"measurement": "Cuff Random Pain50 threshold", "setting": "[1]; NYX-2925 20 mg, baseline 151.89±110.64, p=0.031", "result": "193.00±128.16", "unit": "mmHg"}, {"measurement": "Cuff Random Pain50 threshold", "setting": "[1]; NYX-2925 200 mg, baseline 157.70±110.78, p=0.038", "result": "209.80±132.51", "unit": "mmHg"}, {"measurement": "cuff algometry procedure overall unpleasantness rating", "setting": "[1]; Week 7 follow-up, after cessation of NYX-2925, p=0.040 vs 200 mg", "result": "30.00±22.82"}, {"measurement": "cuff algometry procedure overall unpleasantness rating", "setting": "[1]; treatment with NYX-2925 200 mg (Week 6)", "result": "25.00±19.15"}, {"measurement": "MAST Pain50 threshold", "setting": "[2]; NYX-2925 20 mg relative to baseline, p=0.079", "result": "marginal decrease in threshold"}, {"measurement": "pain thresholds of the MAST test", "setting": "[2]; NYX-2925 200 mg", "result": "not significantly altered"}, {"measurement": "rating of pain unpleasantness evoked by MAST testing", "setting": "[2]; NYX-2925 200 mg, baseline 50.00±24.24, p=0.038", "result": "42.14±19.34"}, {"measurement": "rating of overall pain intensity evoked by MAST testing", "setting": "[2]; NYX-2925 200 mg, baseline 51.43±15.01, p=0.035", "result": "44.76±12.19", "unit": "NRS units"}, {"measurement": "overall visual task unpleasantness", "setting": "[3]; NYX-2925 200 mg (Week 6)", "result": "42.31±29.20"}, {"measurement": "rating of unpleasantness evoked by the brightest visual stimulus", "setting": "[3]; NYX-2925 200 mg (Week 6)", "result": "59.97±35.46", "unit": "NRS"}, {"measurement": "rating of unpleasantness evoked by the brightest visual stimulus", "setting": "[3]; Week 7 follow-up, p=0.037 vs 200 mg", "result": "53.13±36.88", "unit": "NRS"}, {"measurement": "overall visual task unpleasantness", "setting": "[3]; Week 7 follow-up, p=0.040 vs 200 mg", "result": "33.85±28.07"}]}]}
